Assay results published in patent US6589954B1, “Compounds and methods to treat cardiac failure and other disorders” (Scios, Inc., priority 1998, dated 2003).
pIC50: −log10 of the molar value. Where “and” joins values, the source holds several entries; their conditions need not be identical. Identical values can stand only once. Like-named read-outs stand apart in the source and are kept apart here.

Assays:
Type in all cases: biochemical
p38α = p38α (Homo sapiens, UniProt Q16539); assay: Assay for p38 kinase inhibition (p38α);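 also: radiometric p38 kinase assay, peptide substrate phosphorylation with γ-32P-ATP, 40 min at room temperature, incorporated counts measured by scintillation, inhibition relative to uninhibited kinase activity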
Chain of p38α (Q16539 whole entry): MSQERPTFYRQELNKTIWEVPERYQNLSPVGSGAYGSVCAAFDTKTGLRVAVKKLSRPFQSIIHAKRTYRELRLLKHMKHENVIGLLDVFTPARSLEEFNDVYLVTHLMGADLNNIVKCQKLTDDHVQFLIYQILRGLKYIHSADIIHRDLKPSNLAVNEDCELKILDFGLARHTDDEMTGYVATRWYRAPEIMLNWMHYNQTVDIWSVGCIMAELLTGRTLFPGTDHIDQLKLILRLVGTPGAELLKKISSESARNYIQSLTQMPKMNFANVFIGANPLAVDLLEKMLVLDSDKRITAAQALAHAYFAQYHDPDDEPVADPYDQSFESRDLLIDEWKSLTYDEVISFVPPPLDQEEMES

p38β = p38β (Homo sapiens, UniProt Q15759); assay: p38 kinase inhibition assay, p38β
Chain of p38β (Q15759 whole entry): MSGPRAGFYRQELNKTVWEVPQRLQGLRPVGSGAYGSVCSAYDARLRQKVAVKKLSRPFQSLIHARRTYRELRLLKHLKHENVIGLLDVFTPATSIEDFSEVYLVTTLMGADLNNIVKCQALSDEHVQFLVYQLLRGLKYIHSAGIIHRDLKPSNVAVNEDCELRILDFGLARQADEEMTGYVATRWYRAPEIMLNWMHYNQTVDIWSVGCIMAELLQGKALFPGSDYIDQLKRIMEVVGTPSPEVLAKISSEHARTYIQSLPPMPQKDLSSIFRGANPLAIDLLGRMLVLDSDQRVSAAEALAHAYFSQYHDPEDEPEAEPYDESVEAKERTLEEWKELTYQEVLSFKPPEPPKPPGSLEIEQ
Description: The compounds to be tested were solubilized in DMSO and diluted into water to the desired concentrations. The p38 kinase was diluted to 10 μg/ml into a buffer containing 20 mM MOPS, pH 7.0, 25 mM beta-glycerol phosphate, 2 mg/ml gelatin, 0.5 mM EGTA, and 4 mM DTT.
The reaction was carried out by mixing 20 μl test compound with 10 μl of a substrate cocktail containing 500 μg/ml peptide substrate and 0.2 mM ATP (+200 μCi/ml gamma-32P-ATP) in a 4×assay buffer. The reaction was initiated by the addition of 10 μl of p38 kinase. Final assay conditions were 25 mM MOPS, pH 7.0, 26.25 mM beta-glycerol phosphate, 80 mM KCl, 22 mM MgCl2, 3 mM MgSO4, 1 mg/ml gelatin, 0.625 mM. […] After a 40 minute incubation at room temperature, the reaction was stopped by the addition of 10 μl per reaction of 0.25 M phosphoric acid.
A portion of the reaction was spotted onto a disk of P81 phosphocellulose paper, the filters were dried for 2 minutes and then washed 4× in 75 mM H3PO4. The filters were rinsed briefly in 95% ethanol, dried, then placed in scintillation vials with liquid scintillation cocktail.
Alternatively, the substrate is previously biotinylated and the resulting reactions are spotted on SAM^2TM streptavidin filter squares (Promega). The filters are washed 4× in 2M NaCl, 4× in 2M NaCl with 1% phosphoric acid, 2× in water, and briefly in 95% ethanol. The filter squares are dried and placed in scintillation vials with liquid scintillation cocktail.
(§1) Counts incorporated are determined on a scintillation counter. Relative enzyme activity is calculated by subtracting background counts (counts measured in the absence of enzyme) from each result, and comparing the resulting counts to those obtained in the absence of inhibitor. IC50 values were determined with curve-fitting plots available with common software packages. Approximate IC50 values were calculated using formula
(§2) where A=fractional activity and i=total inhibitor concentration.
Activity with regard to p38β was also tested for compounds of the invention to determine the influence of the position of the piperidinyl or piperazinyl substituent. The influence of substitution on the benzyl moiety attached to the 4-position of the piperazine or piperidine was also tested.

p38-γ = target: T1, p38-γ (Homo sapiens, UniProt P53778); assay: Kinase specificity, p38-γ; conditions: approximate IC50; tested at 50 μM, calculated using the formula in Example 22
T1 sequence (P53778 1-367): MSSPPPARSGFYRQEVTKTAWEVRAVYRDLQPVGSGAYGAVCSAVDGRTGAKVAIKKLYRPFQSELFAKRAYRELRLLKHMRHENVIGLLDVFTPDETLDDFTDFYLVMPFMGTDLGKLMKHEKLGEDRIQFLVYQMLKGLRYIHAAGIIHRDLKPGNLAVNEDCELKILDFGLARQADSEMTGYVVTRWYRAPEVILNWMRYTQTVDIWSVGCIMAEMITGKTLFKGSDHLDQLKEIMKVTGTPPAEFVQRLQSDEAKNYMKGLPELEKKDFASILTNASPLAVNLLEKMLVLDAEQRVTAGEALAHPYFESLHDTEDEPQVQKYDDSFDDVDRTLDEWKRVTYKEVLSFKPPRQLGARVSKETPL
Description: as §1, §2
(§3) The specificity of the compounds of the invention was also tested with respect to other kinases, including p38-γ, ERK-2, PKA, PKC, cdc-2, EGF-R, and DNA-PK as shown in Table 4. The compounds tested are the 4-benzylpiperidinyl indole-5- and 6-carboximides with the number indicating the ring position of the carboxamide.
(§4) The exception is for p38α values where the IC50 values were determined from concentration dependent curve fitting analysis.

ERK-2 = ERK-2 (Homo sapiens, UniProt P28482); assay: Kinase specificity, ERK-2; conditions: approximate IC50; tested at 50 μM, calculated using the formula in Example 22
Chain of ERK-2 (P28482 whole entry, species assumed): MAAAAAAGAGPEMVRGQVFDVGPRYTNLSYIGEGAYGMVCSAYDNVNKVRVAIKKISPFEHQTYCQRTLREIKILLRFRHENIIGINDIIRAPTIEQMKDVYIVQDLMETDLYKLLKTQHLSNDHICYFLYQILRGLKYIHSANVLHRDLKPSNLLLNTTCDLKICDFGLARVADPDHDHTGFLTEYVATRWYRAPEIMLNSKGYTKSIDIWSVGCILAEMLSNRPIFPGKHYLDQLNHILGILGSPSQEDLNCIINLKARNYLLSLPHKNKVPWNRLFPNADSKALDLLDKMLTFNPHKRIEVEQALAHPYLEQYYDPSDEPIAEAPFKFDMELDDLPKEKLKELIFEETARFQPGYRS
Description: as §1, §2, §3, §4

PKA = PKA (Homo sapiens, UniProt P17612); assay: Kinase specificity, PKA; conditions: approximate IC50; tested at 50 μM, calculated using the formula in Example 22
Description: as §1, §2, §3, §4

PKC = assay: Kinase specificity, PKC; conditions: approximate IC50; tested at 50 μM, calculated using the formula in Example 22
Description: as §1, §2, §3, §4

cdc2 = cdc2 (Homo sapiens, UniProt P06493); assay: Kinase specificity, cdc2; conditions: approximate IC50; tested at 50 μM, calculated using the formula in Example 22
Chain of cdc2 (P06493 whole entry, species assumed): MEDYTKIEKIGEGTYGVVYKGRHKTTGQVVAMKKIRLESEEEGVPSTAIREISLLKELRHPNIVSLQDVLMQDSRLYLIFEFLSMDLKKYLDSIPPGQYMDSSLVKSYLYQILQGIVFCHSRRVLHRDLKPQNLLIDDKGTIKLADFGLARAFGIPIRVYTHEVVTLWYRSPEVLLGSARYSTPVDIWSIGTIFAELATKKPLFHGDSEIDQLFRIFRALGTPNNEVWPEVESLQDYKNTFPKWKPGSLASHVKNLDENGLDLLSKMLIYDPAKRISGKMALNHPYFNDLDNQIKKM
Chain of cdc2 (P14635 whole entry partner, species assumed): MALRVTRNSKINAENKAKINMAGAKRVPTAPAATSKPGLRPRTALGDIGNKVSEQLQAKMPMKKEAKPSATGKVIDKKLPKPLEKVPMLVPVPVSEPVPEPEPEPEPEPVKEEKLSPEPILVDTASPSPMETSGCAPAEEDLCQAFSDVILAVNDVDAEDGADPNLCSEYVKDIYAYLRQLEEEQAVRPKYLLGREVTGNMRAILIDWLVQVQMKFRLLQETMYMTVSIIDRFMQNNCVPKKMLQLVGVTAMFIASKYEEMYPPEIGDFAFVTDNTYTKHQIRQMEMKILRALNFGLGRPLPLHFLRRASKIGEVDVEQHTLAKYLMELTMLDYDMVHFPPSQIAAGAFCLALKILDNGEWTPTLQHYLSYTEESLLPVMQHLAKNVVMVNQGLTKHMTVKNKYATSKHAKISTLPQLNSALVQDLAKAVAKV
Description: as §1, §2, §3, §4

EGF-R = EGF-R (Homo sapiens, UniProt P00533); assay: Kinase specificity, EGF-R; conditions: approximate IC50; tested at 50 μM, calculated using the formula in Example 22
Chain of EGF-R (P00533 25-1210, species assumed): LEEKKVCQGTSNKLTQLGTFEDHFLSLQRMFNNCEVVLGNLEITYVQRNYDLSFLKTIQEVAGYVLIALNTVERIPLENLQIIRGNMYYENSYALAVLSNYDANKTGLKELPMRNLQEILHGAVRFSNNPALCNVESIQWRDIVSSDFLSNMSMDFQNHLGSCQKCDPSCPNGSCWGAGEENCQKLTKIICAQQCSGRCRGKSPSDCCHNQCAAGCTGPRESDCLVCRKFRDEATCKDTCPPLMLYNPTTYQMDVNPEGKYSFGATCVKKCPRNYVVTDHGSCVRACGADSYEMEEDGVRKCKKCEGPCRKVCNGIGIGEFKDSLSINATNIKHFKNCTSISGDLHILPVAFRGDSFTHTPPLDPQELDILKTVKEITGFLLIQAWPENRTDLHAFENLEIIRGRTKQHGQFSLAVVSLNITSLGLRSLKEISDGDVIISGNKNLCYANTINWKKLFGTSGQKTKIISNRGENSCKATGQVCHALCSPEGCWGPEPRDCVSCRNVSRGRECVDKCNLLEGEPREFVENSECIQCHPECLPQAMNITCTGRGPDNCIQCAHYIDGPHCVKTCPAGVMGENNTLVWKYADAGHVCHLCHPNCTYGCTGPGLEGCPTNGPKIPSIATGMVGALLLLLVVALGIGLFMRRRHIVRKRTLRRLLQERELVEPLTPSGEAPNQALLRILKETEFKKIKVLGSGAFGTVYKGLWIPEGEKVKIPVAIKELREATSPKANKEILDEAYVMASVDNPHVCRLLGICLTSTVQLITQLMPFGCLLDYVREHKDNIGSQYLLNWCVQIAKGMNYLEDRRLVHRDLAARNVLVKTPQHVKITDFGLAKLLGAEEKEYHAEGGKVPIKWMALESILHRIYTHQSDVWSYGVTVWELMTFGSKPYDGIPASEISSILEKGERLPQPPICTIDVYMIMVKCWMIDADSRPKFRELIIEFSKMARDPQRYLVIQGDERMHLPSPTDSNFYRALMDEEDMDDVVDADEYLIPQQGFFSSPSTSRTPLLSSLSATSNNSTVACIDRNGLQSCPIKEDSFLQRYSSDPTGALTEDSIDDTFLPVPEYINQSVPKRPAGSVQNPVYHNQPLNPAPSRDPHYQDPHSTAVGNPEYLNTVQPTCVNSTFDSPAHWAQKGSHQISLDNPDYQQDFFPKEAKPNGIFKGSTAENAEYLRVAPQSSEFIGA
Description: as §1, §2, §3, §4

DNA-PK = DNA-PK (Homo sapiens, UniProt P78527); assay: Kinase specificity, DNA-PK; conditions: approximate IC50; tested at 50 μM, calculated using the formula in Example 22
Description: as §1, §2, §3, §4

[1] = Table 5, read-out: IC50, inhibition of p38α
[2] = at 50 μM concentration of the compound, Table 3, read-out: percent inhibition of p38β activity
[3] = Table 1, by ring position of the piperidinyl or piperazinyl substituent on indole, read-out: IC50 for inhibition of p38α
[4] = at 50 μM concentration of the compound, Table 3

Row | pIC50 (p38α; [1]) | inhibition at 50 µM (p38β; [2]) [%] | Compound | further results
1 | 6.31 |  | Cc1cc2c(Cl)c(C(=O)N3CCC(Cc4ccccc4)CC3)ccc2[nH]1 | inhibition at 0.2 µM (p38α; at 0.2 μM): 43%
2 |  |  | O=C(c1ccc2c(C(=O)C(F)(F)F)c[nH]c2c1)N1CCC(Cc2ccccc2)CC1 [3-trifluoroacetyl-(4-benzylpiperidinyl)indole-6-carboxamide] | inhibition of p38α (p38α; at 1 μM): 41%
3 | 6.45 |  | CCN(CC)CCn1ccc2cc(C(=O)N3CCC(Cc4ccc(F)cc4)CC3)ccc21 [1-(Diethylamino)-ethyl-(4′-fluoro-4-benzylpiperidinyl)-indole-5-carboxamide] | 
4 |  | 7 | O=C(c1cccc2cc[nH]c12)N1CCN(Cc2ccccc2)CC1 [Piperazinyl 7] | 
5 |  | 96 | O=C(c1c[nH]c2ccccc12)N1CCC(Cc2ccccc2)CC1 [Piperidinyl 3] | pIC50 (p38α; [3]): 6.70
6 | 6.20 |  | O=C(c1ccc2[nH]cnc2c1)N1CCC(Cc2ccccc2)CC1 [4-Benzyl-piperidinyl-benzimidazole-5-carboxamide] | inhibition at 50 µM (p38β; compounds tested at 50 μM, read-out: inhibition of p38β): 85%
7 | 6.39 |  | O=C(c1ccc2c(ccn2C(=O)c2ccncc2)c1)N1CCC(Cc2ccccc2)CC1 [drawing 83] | 
8 |  | 56 | O=C(c1ccc2cc[nH]c2c1)N1CCN(Cc2ccccc2)CC1 [Piperazinyl 6] | pIC50 (p38α; [3]): 5.30
9 | 6.70 |  | CCN(CC)CCCn1ccc2cc(C(=O)N3CCC(Cc4ccccc4)CC3)c(Cl)cc21 [1-(Diethylamino)-n-propyl-6-chloro-(4-benzylpiperidinyl)-indole-5-carboxamide] | 
10 |  | 68 | O=C(c1cccc2[nH]ccc12)N1CCN(Cc2ccccc2)CC1 [Piperazinyl 4] | 
11 |  |  | 4-(4-Chlorobenzyl)piperazinyl-indole-5-carboxamide [Piperazinyl 5 4-Cl] | percent inhibition of p38β activity (p38β; [4]): 77%
12 | 6.28 and 6.24 | 96 | O=C(c1ccc2[nH]ccc2c1)N1CCC(Cc2ccccc2)CC1 [Piperidinyl 5, 4-Benzylpiperidinyl-indole-5-carboxamide] | pIC50 (p38α; [3]): 6.62
13 |  |  | NC(=O)c1ccc2nc(N3CCN(Cc4cccc(Cl)c4)CC3)[nH]c2c1 [4-(3-chlorobenzyl)-piperazinyl-benzimidazole-5-carboxamide] | inhibition of p38β (p38β; compounds tested at 50 μM): 66%
14 |  | 12 | O=C(c1cc2ccccc2[nH]1)N1CCC(Cc2ccccc2)CC1 [Piperidinyl 2] | pIC50 (p38α; [3]): 5.49
15 | 6.74 |  | CCN(CC)CCn1ccc2cc(C(=O)N3CCC(Cc4ccccc4)CC3)c(OC)cc21 [1-(Diethylaminoethyl)-6-methoxy-(4-benzylpiperidinyl)-indole-5-carboxamide] | 
16 | 6.32 |  | CCN(CC)CCCn1ccc2cc(C(=O)N3CCC(Cc4ccccc4)CC3)ccc21 [1-(Diethylamino)n-propyl-(4-benzylpiperidinyl)-indole-5-carboxamide] | 
17 |  | 77 | O=C(c1c[nH]c2ccccc12)N1CCN(Cc2ccccc2)CC1 [Piperazinyl 3] | pIC50 (p38α; [3]): 5.26
18 |  | 59 | O=C(c1ccc2[nH]ccc2c1)N1CCN(Cc2ccccc2)CC1 [Piperazinyl 5] | 
19 | 6.41 |  | O=C(c1ccc2[nH]cnc2c1)N1CCC(Cc2ccc(F)cc2)CC1 | 
20 |  |  | O=C(c1ccc2cc[nH]c2c1)N1CCC(Cc2ccccc2)CC1 [Piperidinyl 6, 4-benzylpiperidinyl-indole-6-carboxamide] | percent inhibition of p38β activity (p38β; [4]): 92%; pIC50 (p38-γ): < 3.52; pIC50 (ERK-2): < 3.52; pIC50 (PKA): < 3.30; pIC50 (PKC): < 3.30; pIC50 (cdc2): < 3.30; pIC50 (EGF-R): < 3.30; pIC50 (DNA-PK): 3.35
21 |  | 45 | O=C(c1cccc2cc[nH]c12)N1CCC(Cc2ccccc2)CC1 [Piperidinyl 7] | pIC50 (p38α; [3]): < 4.52
22 | 6.06 |  | O=C(c1ccc2c(ccn2C(=O)c2ccncc2)c1)N1CCC(Cc2ccccc2)CC1 [drawing 82] | 
23 |  |  | CC(=O)N1CCC(Cc2ccc(F)cc2)C1 (stereo not shown) | inhibition at 1 µM (p38α; at 1 μM): 51%
24 |  | 96 | O=C(c1cccc2[nH]ccc12)N1CCC(Cc2ccccc2)CC1 [Piperidinyl 4] | pIC50 (p38α; [3]): 6.70
25 | 7.19 |  | COc1cc2[nH]cc(C(=O)NCCN(C)C)c2cc1C(=O)N1CCC(Cc2ccccc2)CC1 [6-methoxy-3-(2-dimethylaminoethylamino)carboxamidyl-(4-benzylpiperidinyl)indole-5-carboxamide] | 
26 |  | 27 | O=C(c1cc2ccccc2[nH]1)N1CCN(Cc2ccccc2)CC1 [Piperazinyl 2] | pIC50 (p38α; [3]): < 4.52
27 | 5.18 |  | O=C(c1ccc2[nH]cc(CN3CCOCC3)c2c1)N1CCC(Cc2ccccc2)CC1 | 

Row | Compound | pIC50 (p38α; [1]) | inhibition at 50 µM (p38β; [2]) [%] | further results
28 | COc1cc2[nH]ccc2cc1C(=O)N1CCC(Cc2ccc(F)cc2)CC1 [6-methoxy-(4-(4fluorobenzyl)piperidinyl)indole-5-carboxamide] | 6.80 |  | 
